According to the NIST ThermoML archive (doi:10.1016/j.tca.2013.08.031):
Numbers after ± are expanded uncertainties.

Experiment: molar heat capacity at constant volume
Details: Fluid (supercritical or subcritical phases), Vacuum adiabatic calorimetry

CCC(C)O (stereo not given) [butan-2-ol]
Details | molar heat capacity at constant volume [J/K/mol]
307.37 K, Mass density=794.06 kg/m3 | 167.81 ± 1.7
307.62 K, Mass density=794.06 kg/m3 | 154.62 ± 1.6
307.87 K, Mass density=794.06 kg/m3 | 157.58 ± 1.6
308.12 K, Mass density=794.06 kg/m3 | 160.7 ± 1.6
308.37 K, Mass density=794.06 kg/m3 | 163.88 ± 1.7
308.62 K, Mass density=794.06 kg/m3 | 165.44 ± 1.7
308.87 K, Mass density=794.06 kg/m3 | 167.74 ± 1.7
309.12 K, Mass density=794.06 kg/m3 | 167.81 ± 1.7
309.37 K, Mass density=794.06 kg/m3 | 168.4 ± 1.7
309.62 K, Mass density=794.06 kg/m3 | 167.22 ± 1.7
311.11 K, Mass density=794.06 kg/m3 | 182.78 ± 1.9
321.67 K, Mass density=794.06 kg/m3 | 204.87 ± 2.1
323.61 K, Mass density=794.06 kg/m3 | 208.36 ± 2.1
323.85 K, Mass density=794.06 kg/m3 | 208.87 ± 2.1
324.09 K, Mass density=794.06 kg/m3 | 208.06 ± 2.1
324.33 K, Mass density=794.06 kg/m3 | 208.8 ± 2.1
324.57 K, Mass density=794.06 kg/m3 | 208.8 ± 2.1
324.81 K, Mass density=794.06 kg/m3 | 207.99 ± 2.1
325.06 K, Mass density=794.06 kg/m3 | 209.76 ± 2.1
325.3 K, Mass density=794.06 kg/m3 | 210.43 ± 2.1
325.54 K, Mass density=794.06 kg/m3 | 211.25 ± 2.1
325.78 K, Mass density=769.05 kg/m3 | 223.77 ± 2.2
325.78 K, Mass density=794.06 kg/m3 | 210.73 ± 2.1
326.02 K, Mass density=769.05 kg/m3 | 224.88 ± 2.3
326.02 K, Mass density=794.06 kg/m3 | 211.32 ± 2.1
326.26 K, Mass density=769.05 kg/m3 | 226.22 ± 2.3
326.26 K, Mass density=794.06 kg/m3 | 213.03 ± 2.1
326.5 K, Mass density=769.05 kg/m3 | 226.29 ± 2.3
326.74 K, Mass density=769.05 kg/m3 | 227.11 ± 2.3
326.98 K, Mass density=769.05 kg/m3 | 226.59 ± 2.3
327.22 K, Mass density=769.05 kg/m3 | 226.59 ± 2.3
327.22 K, Mass density=794.06 kg/m3 | 213.54 ± 2.1
327.46 K, Mass density=794.06 kg/m3 | 212.51 ± 2.1
327.7 K, Mass density=794.06 kg/m3 | 212.8 ± 2.1
327.94 K, Mass density=794.06 kg/m3 | 212.73 ± 2.1
328.18 K, Mass density=794.06 kg/m3 | 212.43 ± 2.1
333.2 K, Mass density=769.05 kg/m3 | 231.33 ± 2.3
333.44 K, Mass density=769.05 kg/m3 | 232.45 ± 2.4
333.67 K, Mass density=769.05 kg/m3 | 231.78 ± 2.4
333.91 K, Mass density=769.05 kg/m3 | 232.59 ± 2.4
334.15 K, Mass density=769.05 kg/m3 | 232.82 ± 2.4
334.39 K, Mass density=769.05 kg/m3 | 233.04 ± 2.4
334.62 K, Mass density=769.05 kg/m3 | 232.82 ± 2.4
334.86 K, Mass density=769.05 kg/m3 | 233.63 ± 2.4
335.1 K, Mass density=769.05 kg/m3 | 234.15 ± 2.4
335.33 K, Mass density=769.05 kg/m3 | 233.41 ± 2.4
335.57 K, Mass density=769.05 kg/m3 | 225.63 ± 2.3
335.81 K, Mass density=769.05 kg/m3 | 219.55 ± 2.2
336.04 K, Mass density=769.05 kg/m3 | 213.77 ± 2.2
336.28 K, Mass density=769.05 kg/m3 | 209.39 ± 2.1
336.52 K, Mass density=769.05 kg/m3 | 207.32 ± 2.1
336.75 K, Mass density=769.05 kg/m3 | 207.02 ± 2.1
337.46 K, Mass density=769.05 kg/m3 | 204.72 ± 2.1
337.93 K, Mass density=769.05 kg/m3 | 204.8 ± 2.1
338.64 K, Mass density=769.05 kg/m3 | 204.35 ± 2.1
339.34 K, Mass density=769.05 kg/m3 | 203.76 ± 2.1
349.82 K, Mass density=735.98 kg/m3 | 241.34 ± 2.4
350.05 K, Mass density=735.98 kg/m3 | 242.01 ± 2.4
350.28 K, Mass density=735.98 kg/m3 | 243.56 ± 2.4
350.51 K, Mass density=735.98 kg/m3 | 243.19 ± 2.4
350.74 K, Mass density=735.98 kg/m3 | 243.49 ± 2.4
352.35 K, Mass density=769.05 kg/m3 | 218.36 ± 2.2
352.58 K, Mass density=769.05 kg/m3 | 219.99 ± 2.2
353.27 K, Mass density=735.98 kg/m3 | 242.23 ± 2.4
353.49 K, Mass density=735.98 kg/m3 | 245.19 ± 2.4
353.72 K, Mass density=735.98 kg/m3 | 244.68 ± 2.4
353.95 K, Mass density=735.98 kg/m3 | 243.34 ± 2.4
354.18 K, Mass density=735.98 kg/m3 | 245.12 ± 2.4
354.41 K, Mass density=735.98 kg/m3 | 243.86 ± 2.4
354.64 K, Mass density=735.98 kg/m3 | 245.56 ± 2.4
364.16 K, Mass density=735.98 kg/m3 | 251.2 ± 2.5
364.39 K, Mass density=735.98 kg/m3 | 251.35 ± 2.5
364.61 K, Mass density=735.98 kg/m3 | 252.01 ± 2.5
364.84 K, Mass density=735.98 kg/m3 | 252.16 ± 2.5
365.06 K, Mass density=735.98 kg/m3 | 251.79 ± 2.5
365.29 K, Mass density=735.98 kg/m3 | 251.79 ± 2.5
365.51 K, Mass density=735.98 kg/m3 | 252.01 ± 2.5
366.41 K, Mass density=735.98 kg/m3 | 253.2 ± 2.6
366.63 K, Mass density=735.98 kg/m3 | 248.46 ± 2.5
366.86 K, Mass density=735.98 kg/m3 | 245.27 ± 2.5
367.08 K, Mass density=735.98 kg/m3 | 226.44 ± 2.4
367.31 K, Mass density=735.98 kg/m3 | 219.84 ± 2.3
367.53 K, Mass density=735.98 kg/m3 | 215.18 ± 2.2
367.75 K, Mass density=735.98 kg/m3 | 213.69 ± 2.2
367.98 K, Mass density=735.98 kg/m3 | 212.88 ± 2.1
368.2 K, Mass density=735.98 kg/m3 | 213.25 ± 2.1
369.54 K, Mass density=735.98 kg/m3 | 213.69 ± 2.1
369.76 K, Mass density=735.98 kg/m3 | 214.43 ± 2.1
369.99 K, Mass density=735.98 kg/m3 | 214.66 ± 2.1
371.32 K, Mass density=683.53 kg/m3 | 261.13 ± 2.7
371.54 K, Mass density=683.53 kg/m3 | 261.43 ± 2.7
371.77 K, Mass density=683.53 kg/m3 | 261.72 ± 2.7
371.99 K, Mass density=683.53 kg/m3 | 263.06 ± 2.7
372.21 K, Mass density=683.53 kg/m3 | 263.95 ± 2.7
372.43 K, Mass density=683.53 kg/m3 | 260.76 ± 2.6
372.65 K, Mass density=683.53 kg/m3 | 259.87 ± 2.6
373.1 K, Mass density=735.98 kg/m3 | 216.29 ± 2.1
373.32 K, Mass density=735.98 kg/m3 | 217.25 ± 2.2
373.54 K, Mass density=735.98 kg/m3 | 217.99 ± 2.2
373.76 K, Mass density=735.98 kg/m3 | 219.7 ± 2.2
373.98 K, Mass density=735.98 kg/m3 | 219.03 ± 2.2
374.21 K, Mass density=735.98 kg/m3 | 216.66 ± 2.2
374.43 K, Mass density=735.98 kg/m3 | 217.4 ± 2.2
374.65 K, Mass density=735.98 kg/m3 | 217.47 ± 2.2
374.87 K, Mass density=735.98 kg/m3 | 218.51 ± 2.2
